# Laboratory results from US20230055961A1, “PENTAFLUOROBENZENESULFONAMIDE DERIVATIVES AND USES THEREOF” (Dunad Therapeutics Ltd., priority 2019, published 2023).
# Read-outs that look alike come from different tables or passages of the source.
# Legend:
# BTK [1] = molecular target: T1, BTK (Homo sapiens, UniProt Q06187); experiment: In vitro BTK inhibition, biochemical IC50 (no preincubation); details: Table 7
# Description: IC50 Values (nM) for the Inhibition of BTK Activity
# In vitro BTK and JAK3 inhibition studies are shown in Table 7 and Table 8 (no preincubation).
# RL cells = experiment: IC50 of Ibrutinib analogs against human cancer cells, RL cells (Table 14); format: cell-based; details: for IC50: Homo sapiens, RL, read-out: RL (IC50)
# Description: 1×10^4 cells (NHF cells)/well are plated in 96-well assay plates in culture medium. […] After 24 hrs, test compounds and vehicle controls are added to appropriate wells so the final volume is 100p in each well. The cells are cultured for the desired test exposure period (72 hrs) at 37° C. and 5% CO2. The assay plates are removed from 37° C. incubator and 20 μl/well of CellTiter-Blue® Reagent is added. The plates are incubated using standard cell culture conditions for 1-4 hours and the plates are shaken for 10 seconds and record fluorescence at 560/590 nm. […] Therapeutic index=(IC50 human fibroblasts/IC50 […] )
# [2] = test system: normal pooled human fibroblasts; experiment: IC50 of Ibrutinib analogs against normal human cells, pooled human fibroblasts (Table 14); format: cell-based; details: Fibroblast, Table 14, normal human cell line
# Description: Anti-cancer efficacy of exemplary compounds of this application is assessed in vitro in different cancer cell lines. Cell viability is examined following treatment at various concentration of inhibitor (0.097656-50 μM) using a cell Titer-Blue cell viability assay. 1×10^4 cells (NHF cells)/well are plated in 96-well assay plates in culture medium. All cells are grown in DMEM, IMDM and RPMI-1640 supplemented with 10% FBS. After 24 hrs, test compounds and vehicle controls are added to appropriate wells so the final volume is […] in each well. The cells are cultured for the desired test exposure period (72 hrs) at 37° C. and 5% CO2. The assay plates are removed from 37° C. incubator and 20 μl/well of CellTiter-Blue® Reagent is added. The plates are incubated using standard cell culture conditions for 1-4 hours and the plates are shaken for 10 seconds and record fluorescence at 560/590 nm.
# Therapeutic index=(IC50 human fibroblasts/IC50 RLcells)
# BMX [3] = molecular target: T2, BMX (Homo sapiens, UniProt P51813); experiment: In vitro kinase inhibition studies (Table 9), BMX; format: biochemical
# T2 sequence (P51813 1-675): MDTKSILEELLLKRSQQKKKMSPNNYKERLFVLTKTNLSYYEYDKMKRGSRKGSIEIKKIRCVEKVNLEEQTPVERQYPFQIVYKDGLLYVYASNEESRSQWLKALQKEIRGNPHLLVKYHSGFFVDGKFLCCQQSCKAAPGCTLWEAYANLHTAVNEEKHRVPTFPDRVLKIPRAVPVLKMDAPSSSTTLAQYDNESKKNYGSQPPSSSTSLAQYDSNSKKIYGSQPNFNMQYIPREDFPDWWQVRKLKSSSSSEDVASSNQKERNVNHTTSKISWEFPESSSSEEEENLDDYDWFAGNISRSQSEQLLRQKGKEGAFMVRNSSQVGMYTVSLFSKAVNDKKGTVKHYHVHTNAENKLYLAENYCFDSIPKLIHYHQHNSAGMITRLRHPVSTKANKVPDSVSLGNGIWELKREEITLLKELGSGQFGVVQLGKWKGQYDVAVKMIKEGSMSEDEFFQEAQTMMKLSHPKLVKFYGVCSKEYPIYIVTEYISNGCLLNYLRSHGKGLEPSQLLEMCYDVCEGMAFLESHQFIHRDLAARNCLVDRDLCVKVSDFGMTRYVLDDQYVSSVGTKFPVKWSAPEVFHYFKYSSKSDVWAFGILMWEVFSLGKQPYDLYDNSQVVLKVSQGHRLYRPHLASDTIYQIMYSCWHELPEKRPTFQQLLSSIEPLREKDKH
# BMX [4] = molecular target: T2, BMX; experiment: In vitro kinase inhibition studies (Table 13), BMX; format: biochemical
# FGFR2 = FGFR2 (Homo sapiens, UniProt P21802); experiment: In vitro kinase inhibition studies (Table 13), FGFR2; format: biochemical
# CSK = CSK (Homo sapiens, UniProt P41240); experiment: In vitro kinase inhibition studies (Table 13), CSK; format: biochemical
# EGFR = EGFR (Homo sapiens, UniProt P00533); experiment: In vitro kinase inhibition studies (Table 13), EGFR; format: biochemical
# EGFR L850R = EGFR L850R (Homo sapiens, UniProt P00533); experiment: In vitro kinase inhibition studies (Table 13), EGFR L850R; format: biochemical
# EGFR L850R, T790M = EGFR L850R, T790M (Homo sapiens, UniProt P00533, T790M, form not given); experiment: In vitro kinase inhibition studies (Table 13), EGFR L850R, T790M; format: biochemical
# ERBB2 = ERBB2 (Homo sapiens, UniProt P04626); experiment: In vitro kinase inhibition studies (Table 13), ERBB2; format: biochemical
# FGFR = experiment: In vitro kinase inhibition studies (Table 13), FGFR; format: biochemical
# SRC = SRC (Homo sapiens, UniProt P12931); experiment: In vitro kinase inhibition studies (Table 13), SRC; format: biochemical
# BTK [5] = molecular target: T1, BTK; experiment: Covalent modification of BTK by mass spectrometry of the intact protein; format: binding; set-up: His-tagged BTK kinase domain was prepared from pET-28b(+)-BTK (402-655) vector; details: 10 μM BTK, 50 μM compound, 2 hours at 30° C.; expected 596 Da
# Description: After incubation of 10 μM BTK in the presence of 50 μM Compound 5-1 for 2 hours at 30° C., the mass of the modified protein was determined by mass spectrometry. […] After incubation with Compound 5-1, the intensity of this had decreased by an order of magnitude, and the most intense peak is consistent with the protein whose mass was increased by 595 Da, corresponding closely to the expected mass of the inhibitor Compound 5-1 (less one fluoride from inhibitor, and one proton from protein, 596 Da).
# Target sequence in this assay (Q06187 402-655 limits assumed, species assumed): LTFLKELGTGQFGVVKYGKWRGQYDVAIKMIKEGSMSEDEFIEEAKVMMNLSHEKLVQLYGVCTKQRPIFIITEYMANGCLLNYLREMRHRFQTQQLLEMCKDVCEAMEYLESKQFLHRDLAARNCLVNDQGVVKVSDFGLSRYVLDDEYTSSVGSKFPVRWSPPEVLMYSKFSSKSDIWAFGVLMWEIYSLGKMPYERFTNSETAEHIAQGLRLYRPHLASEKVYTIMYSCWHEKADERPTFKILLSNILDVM
# ERBB2, sequence (P04626 23-1255, species assumed): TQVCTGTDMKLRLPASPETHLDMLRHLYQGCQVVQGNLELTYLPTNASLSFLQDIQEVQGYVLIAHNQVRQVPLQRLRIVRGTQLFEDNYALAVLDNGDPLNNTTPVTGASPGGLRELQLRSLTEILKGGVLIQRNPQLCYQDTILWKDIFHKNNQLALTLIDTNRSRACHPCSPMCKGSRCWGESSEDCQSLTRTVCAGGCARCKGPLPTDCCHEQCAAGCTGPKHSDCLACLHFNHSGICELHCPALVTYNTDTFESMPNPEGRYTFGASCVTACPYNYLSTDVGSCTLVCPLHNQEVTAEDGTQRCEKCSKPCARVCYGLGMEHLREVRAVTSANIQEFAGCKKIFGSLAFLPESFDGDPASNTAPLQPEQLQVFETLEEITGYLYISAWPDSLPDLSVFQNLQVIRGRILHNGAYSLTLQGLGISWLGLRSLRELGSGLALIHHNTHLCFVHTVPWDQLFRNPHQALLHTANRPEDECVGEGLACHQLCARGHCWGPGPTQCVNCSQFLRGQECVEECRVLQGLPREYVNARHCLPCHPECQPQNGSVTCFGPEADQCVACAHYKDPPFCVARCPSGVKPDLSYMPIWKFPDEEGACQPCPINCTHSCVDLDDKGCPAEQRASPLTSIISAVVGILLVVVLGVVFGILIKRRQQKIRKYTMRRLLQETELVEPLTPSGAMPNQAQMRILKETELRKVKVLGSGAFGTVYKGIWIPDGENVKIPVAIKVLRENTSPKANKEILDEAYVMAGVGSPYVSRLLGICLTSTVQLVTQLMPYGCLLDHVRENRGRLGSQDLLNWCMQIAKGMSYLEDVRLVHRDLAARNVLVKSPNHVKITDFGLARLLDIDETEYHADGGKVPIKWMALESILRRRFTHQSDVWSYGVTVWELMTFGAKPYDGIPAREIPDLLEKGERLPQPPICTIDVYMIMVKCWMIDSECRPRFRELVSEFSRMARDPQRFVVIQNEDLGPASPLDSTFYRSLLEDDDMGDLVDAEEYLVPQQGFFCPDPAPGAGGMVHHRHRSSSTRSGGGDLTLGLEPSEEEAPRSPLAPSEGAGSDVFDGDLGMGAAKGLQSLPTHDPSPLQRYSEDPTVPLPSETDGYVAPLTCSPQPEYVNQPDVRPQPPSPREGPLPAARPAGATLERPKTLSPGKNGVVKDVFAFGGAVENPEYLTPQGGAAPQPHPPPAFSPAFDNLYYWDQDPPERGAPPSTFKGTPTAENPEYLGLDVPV
# EGFR L850R, sequence (P00533 whole entry L858R, form open): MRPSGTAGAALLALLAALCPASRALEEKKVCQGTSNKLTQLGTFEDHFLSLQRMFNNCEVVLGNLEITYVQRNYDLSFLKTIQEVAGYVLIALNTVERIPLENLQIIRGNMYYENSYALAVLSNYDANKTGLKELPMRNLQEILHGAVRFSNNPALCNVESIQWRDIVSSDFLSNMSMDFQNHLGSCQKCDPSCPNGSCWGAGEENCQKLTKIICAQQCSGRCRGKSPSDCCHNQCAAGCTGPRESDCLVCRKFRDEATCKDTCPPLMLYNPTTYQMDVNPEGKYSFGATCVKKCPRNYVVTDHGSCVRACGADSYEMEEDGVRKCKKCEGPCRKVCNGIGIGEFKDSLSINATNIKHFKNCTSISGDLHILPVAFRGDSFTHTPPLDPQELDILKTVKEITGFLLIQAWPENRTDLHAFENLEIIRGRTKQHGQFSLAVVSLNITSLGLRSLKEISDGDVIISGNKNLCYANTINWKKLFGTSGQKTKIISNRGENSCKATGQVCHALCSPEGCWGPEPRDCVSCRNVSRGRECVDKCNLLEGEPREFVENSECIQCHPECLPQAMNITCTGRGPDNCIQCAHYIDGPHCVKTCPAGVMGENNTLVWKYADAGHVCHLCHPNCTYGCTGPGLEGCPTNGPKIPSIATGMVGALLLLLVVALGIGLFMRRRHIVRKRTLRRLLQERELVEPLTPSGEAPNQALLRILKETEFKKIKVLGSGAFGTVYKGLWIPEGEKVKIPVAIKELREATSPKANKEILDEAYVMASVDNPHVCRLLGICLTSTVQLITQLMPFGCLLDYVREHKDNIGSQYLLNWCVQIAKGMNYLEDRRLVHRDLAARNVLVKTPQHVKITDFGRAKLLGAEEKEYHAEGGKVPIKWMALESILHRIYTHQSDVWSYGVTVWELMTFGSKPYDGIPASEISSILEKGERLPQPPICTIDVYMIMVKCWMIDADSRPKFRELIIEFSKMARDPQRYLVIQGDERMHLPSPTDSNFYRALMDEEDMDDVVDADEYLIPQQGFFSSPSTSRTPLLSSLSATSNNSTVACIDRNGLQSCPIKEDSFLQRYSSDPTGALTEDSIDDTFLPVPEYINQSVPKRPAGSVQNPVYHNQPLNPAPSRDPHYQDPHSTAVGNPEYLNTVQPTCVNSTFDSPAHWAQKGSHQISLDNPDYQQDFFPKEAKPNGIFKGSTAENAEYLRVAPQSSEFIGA
# CSK, sequence (P41240 whole entry, species assumed): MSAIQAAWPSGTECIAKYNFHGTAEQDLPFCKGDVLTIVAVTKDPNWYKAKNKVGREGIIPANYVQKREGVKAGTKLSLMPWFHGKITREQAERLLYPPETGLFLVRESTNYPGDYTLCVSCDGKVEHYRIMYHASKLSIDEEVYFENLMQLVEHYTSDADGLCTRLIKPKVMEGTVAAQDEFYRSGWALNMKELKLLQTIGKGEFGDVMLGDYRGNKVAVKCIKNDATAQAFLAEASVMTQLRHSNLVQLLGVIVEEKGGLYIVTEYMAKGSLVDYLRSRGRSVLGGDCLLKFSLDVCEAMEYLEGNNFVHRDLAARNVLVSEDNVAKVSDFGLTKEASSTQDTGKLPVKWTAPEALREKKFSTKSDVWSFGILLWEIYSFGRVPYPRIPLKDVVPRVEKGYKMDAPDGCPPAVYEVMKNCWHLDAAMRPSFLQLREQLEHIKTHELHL
# SRC, sequence (P12931 whole entry, species assumed, the tested form may be a part): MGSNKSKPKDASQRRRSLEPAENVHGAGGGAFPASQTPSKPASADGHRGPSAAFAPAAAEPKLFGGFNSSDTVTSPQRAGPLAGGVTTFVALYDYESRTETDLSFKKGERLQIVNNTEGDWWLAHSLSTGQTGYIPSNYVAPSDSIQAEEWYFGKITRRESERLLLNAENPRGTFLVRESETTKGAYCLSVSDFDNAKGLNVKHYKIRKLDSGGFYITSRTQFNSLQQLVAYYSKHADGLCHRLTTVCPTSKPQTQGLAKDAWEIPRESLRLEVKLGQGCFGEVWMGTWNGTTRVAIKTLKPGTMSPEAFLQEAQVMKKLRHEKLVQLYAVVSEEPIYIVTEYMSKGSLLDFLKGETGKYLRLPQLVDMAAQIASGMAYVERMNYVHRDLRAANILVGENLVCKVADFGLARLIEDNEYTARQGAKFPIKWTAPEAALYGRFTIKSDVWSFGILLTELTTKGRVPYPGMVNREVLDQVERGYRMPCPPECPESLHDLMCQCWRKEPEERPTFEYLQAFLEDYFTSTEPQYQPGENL
# FGFR2, sequence (P21802 22-821, species assumed): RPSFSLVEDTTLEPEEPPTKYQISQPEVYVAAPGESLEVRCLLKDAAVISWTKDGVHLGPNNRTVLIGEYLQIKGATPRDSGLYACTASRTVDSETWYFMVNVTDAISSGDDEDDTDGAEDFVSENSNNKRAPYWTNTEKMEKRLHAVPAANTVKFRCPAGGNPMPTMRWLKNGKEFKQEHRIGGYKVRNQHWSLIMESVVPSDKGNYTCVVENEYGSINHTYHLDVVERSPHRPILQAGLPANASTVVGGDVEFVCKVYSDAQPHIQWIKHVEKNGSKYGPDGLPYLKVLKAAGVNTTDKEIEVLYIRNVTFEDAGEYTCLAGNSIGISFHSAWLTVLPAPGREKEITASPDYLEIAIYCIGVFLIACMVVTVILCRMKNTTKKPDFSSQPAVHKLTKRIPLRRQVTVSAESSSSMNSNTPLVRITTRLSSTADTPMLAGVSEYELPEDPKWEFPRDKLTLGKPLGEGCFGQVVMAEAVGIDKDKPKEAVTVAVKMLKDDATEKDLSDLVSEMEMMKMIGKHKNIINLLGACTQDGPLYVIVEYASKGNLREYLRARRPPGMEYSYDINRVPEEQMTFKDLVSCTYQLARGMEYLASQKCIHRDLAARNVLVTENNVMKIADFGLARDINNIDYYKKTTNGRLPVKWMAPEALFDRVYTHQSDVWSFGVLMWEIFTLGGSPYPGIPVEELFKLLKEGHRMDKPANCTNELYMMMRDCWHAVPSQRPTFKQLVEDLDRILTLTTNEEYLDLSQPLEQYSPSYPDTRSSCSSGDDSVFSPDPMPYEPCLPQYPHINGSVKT
smiles,measurement,setting,value
"Nc1ncnc2c1c(-c1ccc(Oc3ccccc3)cc1)nn2[C@@H]1CCCN(S(=O)(=O)c2c(F)c(F)c(F)c(F)c2F)C1 [Compound 5-1, (R)-1-(1-((perfluorophenyl)sulfonyl)piperidin-3-yl)-3-(4-phenoxyphenyl)-1H-pyrazolo[3,4-d]pyrimidin-4-amine]",IC50,BTK [1],10 to 100 nM
same,IC50,RL cells; TABLE 9,1610 nM
same,IC50,"RL cells; Table 14, RL human non-Hodgkin's lymphoma B cell line",2740 nM
same,cell-based efficacy compared with Ibrutinib,RL cells; RL cells,better cell-based efficacy
same,IC50,[2],6200 nM
same,IC50,BMX [3],0.1 to 10 nM
same,IC50,BMX [4],0.1 to 10 nM
same,IC50,FGFR2,100 to 1000 nM
same,IC50,CSK,100 to 1000 nM
same,IC50,EGFR,100 to 1000 nM
same,IC50,EGFR L850R,100 to 1000 nM
same,IC50,"EGFR L850R, T790M",100 to 1000 nM
same,IC50,ERBB2,100 to 1000 nM
same,IC50,FGFR,100 to 1000 nM
same,IC50,SRC,100 to 1000 nM
same,mass increase of BTK protein after incubation with compound,BTK [5],595 Da
